Results on 20 compounds are retold here after ChEMBL document CHEMBL6127046, “Design, synthesis, and preclinical evaluation of 11C/18F-labeled inhibitors for RIPK1 PET imaging” (Eur J Med Chem, 2024).

A short description of data set [1]: Lipophilicity, logD of compound at pH 7.4 by shake-flask method. Type of data set: physicochemical. The following applies: buffer.
A further data set deals with HT-29. The data set is described as follows: Anti-necroptosis activity against TNFalpha/SM-164/Z-VAD-FMK-induced human HT-29 cell necroptosis model assessed as cell viability incubated for 24 hrs by CCK8 assay. The format is functional, cell-based. The following applies: HT-29, 24 h.
The next data set concerns U-937. The data set is described as follows: Anti-necroptosis activity against TNFalpha/SM-164/Z-VAD-FMK-induced human U-937 cell necroptosis model assessed as cell viability incubated for 24 hrs by CCK8 assay. The format is functional, cell-based. The following applies: U-937, 24 h.
The next data set relates to L929. The data set can be described thus: Anti-necroptosis activity against TNFalpha/Z-VAD-FMK-induced mouse L929 cell necroptosis model assessed as cell viability incubated for 24 hrs by CCK8 assay. The format is functional, cell-based. The following applies: L929, 24 h. (Tetrazolium assays rely on reduction of a dye to a coloured formazan, in cell work by metabolically active cells.)

Data set [2] can be described thus: Drug uptake in mouse brain assessed as maximum standardized uptake value measured upto 60 mins by PET imaging method. Type of data set: ADME, tissue-based. To be noted: in vivo, 1 h.
The nature of data set [3]: Metabolic stability in mouse plasma assessed as remaining compound measured at 5 mins by HPLC analysis. Type of data set: ADME, cell-free. The following applies: read-out: Stability.
Data set [4] can be described thus: Metabolic stability in mouse brain assessed as remaining compound measured at 5 mins by HPLC analysis. Type of data set: ADME, tissue-based. The following applies: read-out: Stability.
The nature of data set [5]: Drug metabolism in mouse brain measured after 10 to 12 mins by HPLC analysis. The following applies: time 10-12 min. Type of data set: ADME, tissue-based.
The nature of data set [6]: Drug uptake in mouse thalamus measured upto 60 mins by PET imaging method. Type of data set: ADME. To be noted: in vivo, 1 h.
The nature of data set [7]: Drug uptake in mouse hippocampus measured upto 60 mins by PET imaging method. To be noted: in vivo, 1 h. Type of data set: ADME.
Data set [8] is described as follows: Drug uptake in mouse brain in presence of Nec-1s by autoradiography. To be noted: in vivo. The format is ADME, tissue-based.
Data set [9] is described as follows: Drug metabolism in mouse plasma measured at 11 mins. The format is ADME, cell-free.
Data set [10] in a line: Metabolic stability in mouse brain assessed as remaining compound measured at 30 mins by HPLC analysis. Type of data set: ADME, tissue-based. The following applies: read-out: Stability.
Data set [11] is described as follows: Drug uptake in mouse brain in presence of 1-(7-fluoro-2,3-dihydrobenzo[f][1,4]oxazepin-4(5H)-yl)-2,2-dimethylbutan-1-one by autoradiography. Type of data set: ADME, tissue-based. The following applies: in vivo.
A short description of data set [12]: Drug uptake in mouse striatum measured upto 60 mins by PET imaging method. Type of data set: ADME. The following applies: in vivo, 1 h.
The nature of data set [13]: Drug metabolism in mouse blood measured after 10 to 12 mins by HPLC analysis. The format is ADME, tissue-based. The following applies: time 10-12 min.
A short description of data set [14]: Metabolic stability in mouse plasma assessed as remaining compound measured at 30 mins by HPLC analysis. The format is ADME, cell-free. The following applies: read-out: Stability.
A short description of data set [15]: Metabolic stability in mouse plasma assessed as remaining compound measured at 10 mins by HPLC analysis. The format is ADME, cell-free. The following applies: read-out: Stability.
Data set [16] in a line: Drug metabolism in mouse plasma assessed as retention time. The format is ADME, cell-free.
The target in data set [17] is T1, Receptor-interacting serine/threonine-protein kinase 1 (Homo sapiens, UniProt Q13546).
T1 sequence (Q13546 whole entry): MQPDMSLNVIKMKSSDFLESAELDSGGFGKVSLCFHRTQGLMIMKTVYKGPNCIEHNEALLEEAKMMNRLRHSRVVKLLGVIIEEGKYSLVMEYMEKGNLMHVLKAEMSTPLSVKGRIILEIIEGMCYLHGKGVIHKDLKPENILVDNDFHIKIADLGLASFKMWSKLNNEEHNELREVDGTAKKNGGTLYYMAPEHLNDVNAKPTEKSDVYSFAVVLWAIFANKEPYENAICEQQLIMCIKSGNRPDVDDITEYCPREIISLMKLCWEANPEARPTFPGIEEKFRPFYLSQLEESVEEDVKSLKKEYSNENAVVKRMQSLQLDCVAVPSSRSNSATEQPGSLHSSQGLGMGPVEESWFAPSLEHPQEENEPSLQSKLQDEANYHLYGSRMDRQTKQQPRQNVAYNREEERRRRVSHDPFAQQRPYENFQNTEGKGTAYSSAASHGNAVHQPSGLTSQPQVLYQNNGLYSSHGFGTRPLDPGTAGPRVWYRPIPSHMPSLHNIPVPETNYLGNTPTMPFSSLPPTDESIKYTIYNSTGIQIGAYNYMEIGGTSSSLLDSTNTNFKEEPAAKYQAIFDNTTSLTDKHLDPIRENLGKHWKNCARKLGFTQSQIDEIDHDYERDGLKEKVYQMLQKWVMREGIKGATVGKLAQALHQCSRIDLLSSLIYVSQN
The data set is described as follows: Binding affinity to RIPK1 (unknown origin) by KINOMEscan method.

As usually defined, the logD is lipophilicity at a set pH, counting ionised and neutral species. Read a high logD as higher lipophilicity. One may read the EC50 as the concentration that produces a half-maximal response. On to `COc1cnc(N2CCC(C(=O)N3CCOc4ccc(F)cc4C3)CC2)nc1`, for which the logD in data set [1] is 1.8. The EC50 is 200 nM in the data set on HT-29, 2200 nM with U-937 and 380 nM in the data set with L929.
The like results for `O=C(C1CCN(c2ncc(F)cn2)CC1)N1CCOc2ccc(F)cc2C1` were, in that order, 2.2, 5120 nM, 2760 nM and 770 nM.
Consider `[11CH3]Oc1cnc(N2CCC(C(=O)N3CCOc4ccc(F)cc4C3)CC2)nc1`, for which, in data set [2], the SUVmax came out at 0.8.
`CC(C)C(=O)Nc1nc2cc(-c3ccc4c(c3)c(C(=O)NC(C)c3ccccc3)cn4C)ccn2n1` (stereo unspecified): the EC50 in the data set with HT-29 came to 12.5 nM; with U-937, 12.4 nM; with L929, 4 nM.
Consider `O=C(C1CCN(c2ncc(F)cn2)CC1)N1CCOc2ccccc2C1`, for which the concentration giving a half-maximal response (EC50) in the data set with L929 was 830 nM.
For `O=C(C1CCN(c2ncc(Br)cn2)CC1)N1CCOc2ccc(F)cc2C1`, the EC50 in the data set with L929 came to 2320 nM.
Take `O=C(C1CCN(c2ncc(O)cn2)CC1)N1CCOc2ccc(F)cc2C1`: the EC50 in the data set on L929 was more than 10000 nM.
Still for that read-out and setting: as for `CCC(C)(C)C(=O)N1CCOc2ccc(O)cc2C1`, the figure is more than 10000 nM.
Regarding `COc1nc(N2CCC(C(=O)N3CCOc4ccc(Br)cc4C3)CC2)ncc1F`, in the data set with L929, the EC50 is 5210 nM.
Turning to `CCC(C)(C)C(=O)N1CCOc2ccc(OC)cc2C1`, the EC50 with L929 amounted to 8960 nM.
Same read-out and setting: as for `O=C(C1CCN(c2ncc(F)cn2)CC1)N1CCOc2ccc(O)cc2C1`, the figure is more than 10000 nM.
In the case of `O=C(C1CCN(c2ncc([18F])cn2)CC1)N1CCOc2ccc(F)cc2C1`, the SUVmax in data set [2] is 1.5.
On to `COc1ccc2c(c1)CN(C(=O)C1CCN(c3ncc(F)cn3)CC1)CCO2`, for which the EC50 with L929 is 2580 nM.
The same measure, in the same setting: as for `COc1cnc(N2CCC(C(=O)N3CCOc4ccccc4C3)CC2)nc1`, the figure is 4230 nM; as for `COc1nc(N2CCC(C(=O)N3CCOc4ccc(F)cc4C3)CC2)ncc1F`, 6570 nM.
On to `CCC(C)(C)C(=O)N1CCOc2ccc([18F])cc2C1`, for which the results for the remaining at 5 min in data set [3] and in [4] were 72% and 86%, respectively. For the same compound, the Drug metabolism entry in data set [5], in data set [9] and in [13] was “Metabolite_Detected” throughout. Besides, the Drug uptake entry in data set [6] is recorded as “Active”; in data set [7], “Active”; in data set [8], “Not Active”; in [11], “Not Active”; in [12] it was “Active”. The remaining at 0.5 h was 44% in data set [10] and 25% in [14]. The remaining at 10 min in data set [15] turned out to be 51%. In addition, the Retention_time in data set [16] stood at 2.8 min. Besides, in data set [2], the SUVmax stood at 1.5.
For `O=C(C1CCN(c2ncc(Br)cn2)CC1)N1CCOc2ccccc2C1`, in the data set on L929, the EC50 was more than 10000 nM.
For the compound `O=C(C1CCN(c2ncc(Br)cn2)CC1)N1CCOc2ccc(Br)cc2C1`, in the data set with L929, the EC50 was more than 10000 nM.
In general, Kd refers to the concentration at which binding is half-saturated. `CCC(C)(C)C(=O)N1CCOc2ccc(F)cc2C1` displayed a logD in data set [1] of 3.1. Besides, the EC50 was 8.04 nM in the data set with HT-29, 24.9 nM in the data set on U-937 and 20 nM with L929. Besides, binding in [17] was characterised by a dissociation constant (Kd) of 18 nM.
With `O=C(C1CCN(c2ncc(F)cn2)CC1)N1CCOc2ccc(Br)cc2C1`, the EC50 in the data set on L929 was determined as 6930 nM.
